# According to US20220000117A1, “METHOD FOR CONTROLLING DISEASES IN SMALL GRAIN CEREALS, SEED OF SMALL GRAIN CEREALS, AND METHOD FOR SUPPRESSING LODGING DAMAGE IN SMALL GRAIN CEREALS” (KUMIAI CHEMICAL INDUSTRY CO., LTD., priority 2019, published 2022):
# Assays:
# septoria leaf blotch = experiment: Test Example 10: control test of septoria leaf blotch of wheat, cup in greenhouse, inoculated, variety ARKEOS (Tables 15 to 19); type: in vivo, Septoria tritici
# Procedure: (§1) Degree of Disease Occurrence=Σ(Index×Number of Leaves of Index)/(4×Number of Investigated Leaves)×100 (1)
# Seed of wheat (variety: ARKEOS) was used, and 100 ml of suspension waters each containing the compound shown in Table 15 at an amount shown in Table 15 (synthesis was performed in accordance with a known method, a liquid dissolved in a small amount of DMSO or formulated 10% wettable powder was used) were prepared. Seed having a mass of 1 kg was mixed into the suspension water with a rate shown in Examples of Table 15, and air-dried, and then, 5 seeds were sown in a plastic cup having a diameter of 6 cm containing mixed soil of river sand and horticultural soil and managed in a greenhouse. In Comparative Examples, 20 ml of suspension water of an active ingredient, which had been adjusted to have a concentration shown in Table 15 to 19, was sprayed in a frame of 45 cm×45 cm in which a pot of wheat seedlings was placed (corresponding to 1000 L/ha) 14 days after seeding. On day 14 after seeding, a spore suspension in which conidiospores of septoria leaf blotch are suspended was sprayed and inoculated on leaves of wheat seedlings (after the sprayed liquid was dried in the case of Comparative Examples), a lesion area ratio of septoria leaf blotch in a second leaf was investigated approximately 35 days after seeding according to the criteria in Table 1, and the degree of disease occurrence was calculated by the above calculation formula (1).
# powdery mildew = experiment: Test Example 9: control test of wheat powdery mildew, cup in greenhouse, inoculated, Norin No. 61 (Tables 10 to 14); type: in vivo, Blumeria graminis; design: key to Degree of Disease Occurrence: Σ(index×leaves)/(4×leaves investigated)×100; 0 = no disease, 100 = max
# Procedure: as §1
# Seed of wheat (variety: Norin No. 61) was used, and 100 ml of suspension waters each containing the compound shown in Table 10 at an amount shown in […] (synthesis was performed in accordance with a known method, a solution dissolved in DMSO or formulated 10% wettable powder was used) were prepared. The seed having a mass of 1 kg of wheat was mixed into the suspension water with a chemical treated amount shown in Table 10, and air-dried, and then, 5 seeds were sown in a plastic cup having a diameter of 6 cm containing river sand and managed in a greenhouse. In Comparative Examples, 20 ml of the suspension water of an active ingredient, which had been adjusted to have a concentration shown in Table 10, was sprayed in a frame of 45 cm×45 cm in which a pot of wheat seedlings was placed (corresponding to 1000 L/ha) 14 days after seeding. On day 14 after seeding, conidiospores of powdery mildew were sifted over leaves of wheat seedlings and inoculated onto the leaves (after the sprayed liquid was dried in the case of Comparative Examples), a lesion area ratio of powdery mildew in a first leaf was investigated 21 days after seeding according to the criteria in Table 1, and the degree of disease occurrence was calculated by the above calculation formula (1).
# [1] = Table 19, Foliage Treatment, spray 50 ppm suspension water (corresponding to 50 g/ha) 14 days after seeding, untreated 45.0
# [2] = Table 19, Foliage Treatment, spray 50 ppm suspension water (corresponding to 50 g/ha) 14 days after seeding, untreated 98.0
# [3] = Table 19, Seed Treatment, 0.5 g/Seed 1 kg (corresponding to 50 g/ha), untreated 45.0
# [4] = Table 19, Seed Treatment, 0.5 g/Seed 1 kg (corresponding to 50 g/ha), untreated 98.0
# [5] = Table 14, Foliage Treatment, spray 10 ppm suspension water (corresponding to 10 g/ha) 14 days after seeding, untreated 70.0
# [6] = Table 14, Foliage Treatment, spray 10 ppm suspension water (corresponding to 10 g/ha) 14 days after seeding, untreated 100.0
# [7] = Table 14, Foliage Treatment, spray 100 ppm suspension water (corresponding to 100 g/ha) 14 days after seeding, untreated 70.0
# [8] = Table 14, Foliage Treatment, spray 100 ppm suspension water (corresponding to 100 g/ha) 14 days after seeding, untreated 100.0
# [9] = Table 14, Seed Treatment, 0.1 g/Seed 1 kg (corresponding to 10 g/ha), first leaf, 21 days after seeding, untreated 70.0
# [10] = Table 14, Seed Treatment, 0.1 g/Seed 1 kg (corresponding to 10 g/ha), first leaf, 21 days after seeding, untreated 100.0
# [11] = Table 14, Seed Treatment, 1 g/Seed 1 kg (corresponding to 100 g/ha), first leaf, 21 days after seeding, untreated 70.0
# [12] = Table 14, Seed Treatment, 1 g/Seed 1 kg (corresponding to 100 g/ha), first leaf, 21 days after seeding, untreated 100.0
# [13] = Table 18, Foliage Treatment, spray 5 ppm (5 g/ha)
# [14] = Table 18, Foliage Treatment, spray 10 ppm (10 g/ha)
# [15] = Table 18, Seed Treatment 0.05 g/Seed 1 kg (5 g/ha)
# [16] = Table 18, Seed Treatment 0.1 g/Seed 1 kg (10 g/ha)
# [17] = Table 12 run (different day), Foliage Treatment, spray 5 ppm (5 g/ha)
# [18] = Table 12 run (different day), Foliage Treatment, spray 10 ppm (10 g/ha)
# [19] = Table 12 run (different day), Foliage Treatment, spray 50 ppm (50 g/ha)
# [20] = Table 12 run (different day), Seed Treatment 0.05 g/Seed 1 kg (5 g/ha)
# [21] = Table 12 run (different day), Seed Treatment 0.1 g/Seed 1 kg (10 g/ha)
# [22] = Table 12 run (different day), Seed Treatment 0.5 g/Seed 1 kg (50 g/ha)
# [23] = Table 14, Foliage Treatment, spray 50 ppm suspension water (corresponding to 50 g/ha) 14 days after seeding, untreated 70.0
# [24] = Table 14, Foliage Treatment, spray 50 ppm suspension water (corresponding to 50 g/ha) 14 days after seeding, untreated 100.0
# [25] = Table 14, Seed Treatment, 0.5 g/Seed 1 kg (corresponding to 50 g/ha), first leaf, 21 days after seeding, untreated 70.0
# [26] = Table 14, Seed Treatment, 0.5 g/Seed 1 kg (corresponding to 50 g/ha), first leaf, 21 days after seeding, untreated 100.0
# [27] = Table 18, Foliage Treatment, spray 50 ppm (50 g/ha)
# [28] = Table 18, Seed Treatment 0.5 g/Seed 1 kg (50 g/ha)
# [29] = Table 13 run (different day), Foliage Treatment, spray 5 ppm (5 g/ha)
# [30] = Table 13 run (different day), Foliage Treatment, spray 10 ppm (10 g/ha)
# [31] = Table 13 run (different day), Foliage Treatment, spray 50 ppm (50 g/ha)
# [32] = Table 13 run (different day), Seed Treatment 0.05 g/Seed 1 kg (5 g/ha)
# [33] = Table 13 run (different day), Seed Treatment 0.1 g/Seed 1 kg (10 g/ha)
# [34] = Table 13 run (different day), Seed Treatment 0.5 g/Seed 1 kg (50 g/ha)
SMILES,Degree of Disease Occurrence (septoria leaf blotch; [1]),Disease Leaf Rate (%) (septoria leaf blotch; [2]),Degree of Disease Occurrence (septoria leaf blotch; [3]),Disease Leaf Rate (%) (septoria leaf blotch; [4]),Degree of Disease Occurrence (powdery mildew; [5]),Disease Leaf Rate (%) (powdery mildew; [6]),Degree of Disease Occurrence (powdery mildew; [7]),Disease Leaf Rate (%) (powdery mildew; [8]),Degree of Disease Occurrence (powdery mildew; [9]),Disease Leaf Rate (%) (powdery mildew; [10]),Degree of Disease Occurrence (powdery mildew; [11]),Disease Leaf Rate (%) (powdery mildew; [12]),Degree of Disease Occurrence (powdery mildew; [18]),Disease Leaf Rate (%) (powdery mildew; [18]),Degree of Disease Occurrence (powdery mildew; [21]),Disease Leaf Rate (%) (powdery mildew; [21]),Degree of Disease Occurrence (powdery mildew; [23]),Disease Leaf Rate (%) (powdery mildew; [24]),Degree of Disease Occurrence (powdery mildew; [25]),Disease Leaf Rate (%) (powdery mildew; [26]),further results
N=C(OCc1ccccc1)c1snc(Cl)c1Cl [Compound (12)],39.2,93.6%,10.3,41.3%,56.9,94.4%,47.9,93.3%,21.3,75.8%,34.1,87.5%,–,–,–,–,–,–,–,–,"Degree of Disease Occurrence (septoria leaf blotch; Table 19, Foliage Treatment, spray 10 ppm suspension water (corresponding to 10 g/ha) 14 days after seeding, untreated 45.0): 53.3; Disease Leaf Rate (%) (septoria leaf blotch; Table 19, Foliage Treatment, spray 10 ppm suspension water (corresponding to 10 g/ha) 14 days after seeding, untreated 98.0): 99.3%; Degree of Disease Occurrence (septoria leaf blotch; Table 19, Seed Treatment, 0.1 g/Seed 1 kg (corresponding to 10 g/ha), untreated 45.0): 26.3; Disease Leaf Rate (%) (septoria leaf blotch; Table 19, Seed Treatment, 0.1 g/Seed 1 kg (corresponding to 10 g/ha), untreated 98.0): 75.0%"
N=C(N)c1snc(Cl)c1Cl [Compound (13)],–,–,–,–,35.6,76.7%,–,–,17.2,68.8%,–,–,36.7,53.3%,7.5,20.0%,31.3,83.3%,13.9,44.4%,Degree of Disease Occurrence (septoria leaf blotch; [13]): 60.0; Disease Leaf Rate (%) (septoria leaf blotch; [13]): 100.0%; Degree of Disease Occurrence (septoria leaf blotch; [14]): 68.3; Disease Leaf Rate (%) (septoria leaf blotch; [14]): 100.0%; Degree of Disease Occurrence (septoria leaf blotch; [15]): 28.8; Disease Leaf Rate (%) (septoria leaf blotch; [15]): 95.0%; Degree of Disease Occurrence (septoria leaf blotch; [16]): 42.5; Disease Leaf Rate (%) (septoria leaf blotch; [16]): 100.0%; Degree of Disease Occurrence (powdery mildew; [17]): 60.0; Disease Leaf Rate (%) (powdery mildew; [17]): 100.0%; Degree of Disease Occurrence (powdery mildew; [19]): 21.7; Disease Leaf Rate (%) (powdery mildew; [19]): 53.3%; Degree of Disease Occurrence (powdery mildew; [20]): 19.4; Disease Leaf Rate (%) (powdery mildew; [20]): 53.3%; Degree of Disease Occurrence (powdery mildew; [22]): 9.7; Disease Leaf Rate (%) (powdery mildew; [22]): 38.9%
N=C(N)c1snc(Cl)c1Cl [Compound (14)],–,–,–,–,–,–,14.4,44.4%,–,–,11.3,40.0%,–,–,–,–,18.3,61.1%,7.8,25.0%,Degree of Disease Occurrence (septoria leaf blotch; [27]): 48.3; Disease Leaf Rate (%) (septoria leaf blotch; [27]): 100.0%; Degree of Disease Occurrence (septoria leaf blotch; [28]): 42.5; Disease Leaf Rate (%) (septoria leaf blotch; [28]): 90.0%
CCNC(=N)c1snc(Cl)c1Cl [Compound (15)],39.2,93.6%,10.3,41.3%,–,–,–,–,–,–,–,–,80.0,93.3%,31.3,60.0%,47.9,100.0%,13.1,37.5%,Degree of Disease Occurrence (powdery mildew; [17]): 66.7; Disease Leaf Rate (%) (powdery mildew; [17]): 100.0%; Degree of Disease Occurrence (powdery mildew; [19]): 38.3; Disease Leaf Rate (%) (powdery mildew; [19]): 60.0%; Degree of Disease Occurrence (powdery mildew; [20]): 40.8; Disease Leaf Rate (%) (powdery mildew; [20]): 70.0%; Degree of Disease Occurrence (powdery mildew; [22]): 11.9; Disease Leaf Rate (%) (powdery mildew; [22]): 34.4%
N=C(Nc1ccccc1)c1snc(Cl)c1Cl [Compound (16)],38.3,99.7%,29.4,82.5%,32.6,80.6%,29.2,80.6%,15.2,60.8%,18.2,50.0%,63.3,100.0%,22.5,65.0%,19.6,53.3%,8.9,35.4%,Degree of Disease Occurrence (powdery mildew; [19]): 43.3; Disease Leaf Rate (%) (powdery mildew; [19]): 80.0%; Degree of Disease Occurrence (powdery mildew; [22]): 6.3; Disease Leaf Rate (%) (powdery mildew; [22]): 16.7%
N/C(=N\O)c1snc(Cl)c1Cl [Compound (17)],38.3,99.7%,29.4,82.5%,–,–,–,–,–,–,–,–,43.3,80.0%,10.4,25.0%,–,–,–,–,"Degree of Disease Occurrence (septoria leaf blotch; Table 19, Foliage Treatment, spray 100 ppm suspension water (corresponding to 100 g/ha) 14 days after seeding, untreated 45.0): 36.7; Disease Leaf Rate (%) (septoria leaf blotch; Table 19, Foliage Treatment, spray 100 ppm suspension water (corresponding to 100 g/ha) 14 days after seeding, untreated 98.0): 94.9%; Degree of Disease Occurrence (septoria leaf blotch; Table 19, Seed Treatment, 1 g/Seed 1 kg (corresponding to 100 g/ha), untreated 45.0): 20.9; Disease Leaf Rate (%) (septoria leaf blotch; Table 19, Seed Treatment, 1 g/Seed 1 kg (corresponding to 100 g/ha), untreated 98.0): 78.8%; Degree of Disease Occurrence (powdery mildew; [17]): 45.0; Disease Leaf Rate (%) (powdery mildew; [17]): 93.3%; Degree of Disease Occurrence (powdery mildew; [20]): 23.3; Disease Leaf Rate (%) (powdery mildew; [20]): 66.7%; Degree of Disease Occurrence (powdery mildew; [29]): 85.8; Disease Leaf Rate (%) (powdery mildew; [29]): 100.0%; Degree of Disease Occurrence (powdery mildew; [30]): 62.4; Disease Leaf Rate (%) (powdery mildew; [30]): 95.8%; Degree of Disease Occurrence (powdery mildew; [31]): 42.4; Disease Leaf Rate (%) (powdery mildew; [31]): 90.6%; Degree of Disease Occurrence (powdery mildew; [32]): 66.7; Disease Leaf Rate (%) (powdery mildew; [32]): 100.0%; Degree of Disease Occurrence (powdery mildew; [33]): 47.9; Disease Leaf Rate (%) (powdery mildew; [33]): 100.0%; Degree of Disease Occurrence (powdery mildew; [34]): 33.1; Disease Leaf Rate (%) (powdery mildew; [34]): 83.8%"
